≈ marks a conversion by molar mass, not a printed value.
These molecules were tested on Mycolicibacterium smegmatis (assay: Antimycobacterial activity against DDS sensitive Mycobacterium smegmatis ATCC 607 […]). Conditions: not given.
Format: functional
With `Nc1ccc(S(=O)(=O)c2ccc(Cl)cc2)cc1` the MIC was 432 µg/mL (≈ 1610 µM). With `Nc1ccc(S(=O)(=O)c2ccc(F)cc2)cc1` the MIC was 95 µg/mL (≈ 378 µM). With `Nc1ccc(S(=O)(=O)c2ccc(NO)cc2)cc1` [4-AMINO-4'-HYDROXAMINE-DIPHENYLSULPHONE] the MIC was 18.1 µg/mL (≈ 68.5 µM). `CCCCNc1ccc(S(=O)(=O)c2ccc(N)cc2)cc1` was tested, and the MIC was 110 µg/mL (≈ 361 µM). In the case of `Nc1ccc(S(=O)(=O)c2ccc(NCCO)cc2)cc1`, the MIC is reported as 13.7 µg/mL (≈ 46.9 µM). With `CCNc1ccc(S(=O)(=O)c2ccc(N)cc2)cc1` the MIC was 54.4 µg/mL (≈ 197 µM). `CCCCCCNc1ccc(S(=O)(=O)c2ccc(N)cc2)cc1` was tested, and the MIC was over 360 µg/mL. `Nc1ccc(S(=O)(=O)c2ccccc2N)cc1` was tested, and the MIC was 44.2 µg/mL (≈ 178 µM). `CCCCCN(CCCCC)c1ccc(S(=O)(=O)c2ccc(N)cc2)cc1` showed an MIC of over 257 µg/mL. In the case of `Nc1ccc(S(=O)(=O)c2ccc(NC=O)cc2)cc1`, the MIC is reported as 120 µg/mL (≈ 434 µM). Molecule `CCCCCNc1ccc(S(=O)(=O)c2ccc(N)cc2)cc1` has an MIC of 377 µg/mL (≈ 1180 µM). For `Nc1ccc(S(=O)(=O)c2ccc(NCCCO)cc2)cc1`, the MIC was 19.6 µg/mL (≈ 64 µM). Molecule `COC(=O)CNc1ccc(S(=O)(=O)c2ccc(N)cc2)cc1` has an MIC of 32.8 µg/mL (≈ 102 µM). With `Nc1ccc(S(=O)(=O)c2ccc(NCC(=O)O)cc2)cc1` [ACEDIASULFONE] the MIC was 261 µg/mL (≈ 853 µM). `O=S(=O)(c1ccc(O)cc1)c1ccc(O)cc1` gave an MIC of 400 µg/mL (≈ 1600 µM). With `Nc1ccc(S(=O)(=O)c2ccccc2)cc1` the MIC was 1290 µg/mL (≈ 5520 µM). Work on `CNc1ccc(S(=O)(=O)c2ccc(N)cc2)cc1` yielded an MIC of 37.3 µg/mL (≈ 142 µM). Work on `Nc1ccc(S(=O)(=O)c2ccc(Br)cc2)cc1` yielded an MIC of 319 µg/mL (≈ 1020 µM). For `CCN(CC)c1ccc(S(=O)(=O)c2ccc(N)cc2)cc1`, the MIC was over 164 µg/mL. For `Nc1cccc(S(=O)(=O)c2cccc(N)c2)c1`, the MIC was 806 µg/mL (≈ 3250 µM). With `Nc1ccc(S(=O)(=O)c2ccc([N+](=O)[O-])cc2)cc1` the MIC was 34.4 µg/mL (≈ 124 µM). `CCCNc1ccc(S(=O)(=O)c2ccc(N)cc2)cc1` showed an MIC of 34.4 µg/mL (≈ 118 µM).

The molecules below were run on Mycolicibacterium smegmatis (assay: Antimycobacterial activity against DDS resistant Mycobacterium smegmatis ATCC 607 […]). Conditions: not given.
Format: functional
In the case of `Nc1ccc(S(=O)(=O)c2ccc(Cl)cc2)cc1`, the MIC is reported as over 600 µg/mL. `Nc1ccc(S(=O)(=O)c2ccc(F)cc2)cc1` was tested, and the MIC was over 1800 µg/mL. In the case of `Nc1ccc(S(=O)(=O)c2ccc(NO)cc2)cc1` [4-AMINO-4'-HYDROXAMINE-DIPHENYLSULPHONE], the MIC is reported as 3000 µg/mL (≈ 11400 µM). `CCCCNc1ccc(S(=O)(=O)c2ccc(N)cc2)cc1` showed an MIC of over 650 µg/mL. `Nc1ccc(S(=O)(=O)c2ccc(NCCO)cc2)cc1` gave an MIC of 2500 µg/mL (≈ 8550 µM). `CCCCCCNc1ccc(S(=O)(=O)c2ccc(N)cc2)cc1` gave an MIC of over 400 µg/mL. Molecule `Nc1ccc(S(=O)(=O)c2ccc(NC=O)cc2)cc1` has an MIC of over 400 µg/mL. `CCCCCNc1ccc(S(=O)(=O)c2ccc(N)cc2)cc1` gave an MIC of over 500 µg/mL. With `Nc1ccc(S(=O)(=O)c2ccc(NCCCO)cc2)cc1` the MIC was over 2400 µg/mL. For `COC(=O)CNc1ccc(S(=O)(=O)c2ccc(N)cc2)cc1`, the MIC was over 800 µg/mL. `Nc1ccc(S(=O)(=O)c2ccc(NCC(=O)O)cc2)cc1` [ACEDIASULFONE] gave an MIC of over 2200 µg/mL. In the case of `Nc1ccc(S(=O)(=O)c2ccccc2)cc1`, the MIC is reported as over 2580 µg/mL. Molecule `Nc1ccc(S(=O)(=O)c2ccc([N+](=O)[O-])cc2)cc1` has an MIC of over 1200 µg/mL. In the case of `CCCNc1ccc(S(=O)(=O)c2ccc(N)cc2)cc1`, the MIC is reported as over 1200 µg/mL.

What follows are molecules tested on Mycobacterium tuberculosis (assay: Antimycobacterial activity against Mycobacterium tuberculosis H37Rv by BACTEC radiometric growth assay). Conditions: not given.
Format: functional
For `CC(C)CCCCCCCS(=O)(=O)CC(N)=O`, the MIC was 1.5 µg/mL (≈ 5.69 µM). `CCCCCCCCC[S@@+]([O-])CC(N)=O` was tested, and the MIC was 25 µg/mL (≈ 107 µM). With `CCOCCOCCS(=O)(=O)CC(N)=O` the MIC was over 25 µg/mL. Molecule `CCCCCCCCS(=O)(=O)NS(N)(=O)=O` has an MIC of over 25 µg/mL. For `CCCCCCCCOCC(N)=O`, the MIC was over 25 µg/mL. With `C.CCCCCCCCC[S+]([O-])CC(N)=O` (racemic) the MIC was 25 µg/mL. For `C=C/C(C)=C/[C@@]1(C)SC(=O)C(C)=C1O` [THIOLACTOMYCIN], the MIC was 25 µg/mL (≈ 119 µM). In the case of `CC(=O)Nc1ccc(S(=O)(=O)c2ccc(NC(C)=O)cn2)cc1`, the MIC is reported as 12.5 µg/mL (≈ 37.5 µM). `NC(=O)CS(=O)(=O)CCCCCCc1ccccc1` was tested, and the MIC was over 25 µg/mL. `CCCCCCCCC[S@@+]([O-])CC(=O)OC` showed an MIC of over 25 µg/mL. Molecule `CCCCCCCCCCS(=O)(=O)CCC(N)=O` has an MIC of over 25 µg/mL. `CC(=O)Nc1ccc(S(=O)(=O)c2ccc(NC(C)=O)c(Cl)c2)cc1` gave an MIC of over 25 µg/mL. `NC(=O)c1cnccn1` [PYRAZINAMIDE] gave an MIC of 100 µg/mL (≈ 812 µM). `CCCCCCCCS(=O)(=O)NS(C)(=O)=O` was tested, and the MIC was over 25 µg/mL. `CCCCCCCCS(=O)(=O)NC(N)=O` gave an MIC of over 25 µg/mL. Molecule `C/C=C/C/C=C/CCC(=O)[C@H]1O[C@H]1C(N)=O` [CERULENIN] has an MIC of 0.5 to 1.5 µg/mL (≈ 2.24 to 6.72 µM). Molecule `CCCCCCCC[S+]([O-])CC(=O)O` (centres undefined) has an MIC of over 25 µg/mL. Work on `CCCCCCCCS(=O)(=O)CC(=O)OC` yielded an MIC of over 25 µg/mL. With `CCCCCCCCCCS(=O)(=O)C(C)C(N)=O` (centres undefined) the MIC was over 25 µg/mL. In the case of `NC(=O)CS(=O)(=O)CCCCCc1ccccc1`, the MIC is reported as 12.5 to 25 µg/mL (≈ 46.4 to 92.8 µM). For `CCCCCCCCCC[S+]([O-])CCC(N)=O` (centres undefined), the MIC was 6.25 µg/mL (≈ 23.9 µM). For `CCCCCCCC/C=C/S(=O)(=O)CC(N)=O`, the MIC was 12.5 µg/mL (≈ 47.8 µM). `CCCCCCCCC[S@+]([O-])CC(N)=O` was tested, and the MIC was 25 µg/mL (≈ 107 µM). `CC[C@@H](CO)NCCN[C@@H](CC)CO` [ETHAMBUTOL] showed an MIC of 2 µg/mL (≈ 9.79 µM). `C.CCCCCCCCC[S+]([O-])CC(=O)OC` (racemic) showed an MIC of over 25 µg/mL. `CCCCCCCCCCSCCC(N)=O` showed an MIC of 25 µg/mL (≈ 102 µM). Work on `CCCCCCCCC[S+]([O-])CC(=O)OC` (centres undefined) yielded an MIC of 6.25 µg/mL (≈ 25.2 µM). For `CCCCCCCCC[S@+]([O-])CC(=O)OC`, the MIC was over 25 µg/mL. `CCCCCCCCCCP(=O)([O-])CCC(N)=O.[K+]` gave an MIC of over 50 µg/mL. `CC(C)CCCC(C)CCS(=O)(=O)CC(N)=O` (centres undefined) gave an MIC of 6.25 µg/mL (≈ 23.7 µM). Molecule `CCCCCC/C=C/S(=O)(=O)CC(N)=O` has an MIC of 12.5 µg/mL (≈ 53.6 µM). `CCCCCCCC[S+]([O-])CC(=O)OC` (centres undefined) showed an MIC of 12.5 µg/mL (≈ 53.3 µM). For `NC(=O)CS(=O)(=O)CCCCc1ccccc1`, the MIC was over 25 µg/mL. Molecule `CCCCCCCC[S+]([O-])CC(=O)OCc1ccccc1` (centres undefined) has an MIC of 6.25 µg/mL (≈ 20.1 µM).

The molecules below were run on Mycolicibacterium smegmatis (assay: Antimicrobial activity against Mycobacterium smegmatis ATCC 607). Conditions: not given.
Format: functional
`O.OC[C@H]1O[C@@H](n2cnc3c(-c4cccs4)ncnc32)[C@H](O)[C@@H]1O` was tested, and the MIC was 1.75 µM. Work on `O.O.OC[C@H]1O[C@@H](n2cnc3c(-c4cccs4)ncnc32)[C@H](O)[C@@H]1O` yielded an MIC of 4 µM. In the case of `Cl.OC[C@H]1O[C@@H](n2cnc3c(-c4cccs4)ncnc32)[C@H](O)[C@@H]1O`, the MIC is reported as 0.4 µM. With `Cl.Cl.OC[C@H]1O[C@@H](n2cnc3c(-c4cccs4)ncnc32)[C@H](O)[C@@H]1O` the MIC was 0.7 µM.

Same assay, conditions: Mycolicibacterium smegmatis, ATCC 607; read-out: MIC
In the case of `OC[C@H]1O[C@@H](n2cnc3c(-c4ccns4)ncnc32)[C@H](O)[C@@H]1O`, the MIC is reported as 3 µM (≈ 1.01 µg/mL). For `OC[C@H]1O[C@@H](n2nnc3c(-c4cccs4)ncnc32)[C@H](O)[C@@H]1O`, the MIC was 20 µM (≈ 6.71 µg/mL).

What follows are molecules tested on Mycobacterium tuberculosis (assay: Antitubercular activity against Mycobacterium tuberculosis H37Rv ATCC 27294 assessed as growth inhibition at 6.25 ug/ml by microplate alamar blue assay relative to control). Conditions: not given.
Format: functional
Molecule `c1coc(-c2[nH]cnc3ncnc2-3)c1` has an inhibition at 6.25 µg/mL of 6%. With `OC[C@H]1O[C@@H](n2cnc3c(-c4cccs4)ncnc32)[C@H](O)[C@@H]1O` the inhibition at 6.25 µg/mL was 6%. For `OC[C@H]1O[C@@H](n2cnc3c(-c4ccco4)ncnc32)[C@H](O)[C@@H]1O`, the inhibition at 6.25 µg/mL was 0%. `CC(=O)OC[C@H]1O[C@@H](n2cnc3c(Cl)ncnc32)[C@H](OC(C)=O)[C@@H]1OC(C)=O` showed an inhibition at 6.25 µg/mL of 4%.

What follows are molecules tested on Mycobacterium tuberculosis (assay: Antitubercular activity against Mycobacterium tuberculosis infected in mouse assessed as reduction in microbial load at 2 to 3 mg ip, pretreated for 48 to 72 hrs followed by microbial infection and subsequent compound dosing at 48 to 72 hrs post-infection measured 24 to 32 days post-infection relative to control). Conditions: not given.
Format: functional
Set-up: scale not given: the % may be the effect or the level left
`CC(C)(C)c1cc2c(OCCOCCOCCOCCOCCOCCO)c(c1)Cc1cc(C(C)(C)C)cc(c1OCCOCCOCCOCCOCCOCCO)Cc1cc(C(C)(C)C)cc(c1OCCOCCOCCOCCOCCOCCO)Cc1cc(C(C)(C)C)cc(c1OCCOCCOCCOCCOCCOCCO)Cc1cc(C(C)(C)C)cc(c1OCCOCCOCCOCCOCCOCCO)Cc1cc(C(C)(C)C)cc(c1OCCOCCOCCOCCOCCOCCO)Cc1cc(C(C)(C)C)cc(c1OCCOCCOCCOCCOCCOCCO)Cc1cc(C(C)(C)C)cc(c1OCCOCCOCCOCCOCCOCCO)C2` was tested, and the Activity was 80 - 100%. With `CC(C)(C)CC(C)(C)c1cc2c(O)c(c1)Cc1cc(C(C)(C)CC(C)(C)C)cc(c1OCCOCCOCCOCCOCCOCCO)Cc1cc(C(C)(C)CC(C)(C)C)cc(c1O)Cc1cc(C(C)(C)CC(C)(C)C)cc(c1OCCOCCOCCOCCOCCOCCO)Cc1cc(C(C)(C)CC(C)(C)C)cc(c1O)Cc1cc(C(C)(C)CC(C)(C)C)cc(c1OCCOCCOCCOCCOCCOCCO)Cc1cc(C(C)(C)CC(C)(C)C)cc(c1O)Cc1cc(C(C)(C)CC(C)(C)C)cc(c1OCCOCCOCCOCCOCCOCCO)C2` the Activity was 20 - 50%. With `CCCCCCCCCCCCOc1c2cc(S(=O)(=O)O)cc1Cc1cc(S(=O)(=O)O)cc(c1OCCCCCCCCCCCC)Cc1cc(S(=O)(=O)O)cc(c1OCCCCCCCCCCCC)Cc1cc(S(=O)(=O)O)cc(c1OCCCCCCCCCCCC)Cc1cc(S(=O)(=O)O)cc(c1OCCCCCCCCCCCC)Cc1cc(S(=O)(=O)O)cc(c1OCCCCCCCCCCCC)Cc1cc(S(=O)(=O)O)cc(c1OCCCCCCCCCCCC)Cc1cc(S(=O)(=O)O)cc(c1O)C2` the Activity was 50 - 80%. In the case of `CC(C)(C)c1cc2c(O)c(c1)Cc1cc(C(C)(C)C)cc(c1OCCOCCOCCOCCOCCOCCO)Cc1cc(C(C)(C)C)cc(c1O)Cc1cc(C(C)(C)C)cc(c1OCCOCCOCCOCCOCCOCCO)Cc1cc(C(C)(C)C)cc(c1O)Cc1cc(C(C)(C)C)cc(c1OCCOCCOCCOCCOCCOCCO)C2`, the Activity is reported as 20 - 50%.

Source: ChEMBL document CHEMBL4613212, “Insights of synthetic analogues of anti-leprosy agents” (Bioorg Med Chem, 2019)
